“Also recorded” adds a separate entry of the source. Like-named read-outs stand apart in the source and are kept apart here. Marks after values point to notes of the source that are not given here.
Assays:
hCB1Rs [1] = target: T1, hCB1Rs (Homo sapiens, UniProt P21554); assay: biochemical; type: binding; details: for Ki: [^3H]CP-55,940 binding, CHO-hCB1 membranes
T1 construct: host or cells: CHO-K1 (CHO-hCB1)

[2] = test system: human liver microsomes (HLMs); assay: Glucuronidation of AB-PINACA and JWH-018 metabolites in HLMs; type: in vitro ADME; details: 90 min; for Glucuronide formation (UPLC peak): 50 μM substrate, HLMs with UDPGA, 37°C
Experimental: A typical incubation mixture (30 μl of total volume) contained 100 mM Tris-HCl (pH 7.4), 5 mM MgCl2, 3 mM UDPGA, 80 μg/ml alamethicin, 50 μg HLMs, 5 mM saccharolactone, and 50 μM 4OH- or 5OH-AB-PINACA. […] After incubation at 37°C for 90 min, reactions were terminated by the addition of 30 μl cold ethanol. Following removal of the protein by centrifugation at 12,000 × g for 10 min, a 5-μl portion of the sample was subjected to UPLC. All incubations were performed in triplicate.
Parent compounds and glucuronidated metabolites were identified by the ACQUITY UPLC System with a UV detector (Milford, MA, United States). […] The column was re-equilibrated at initial conditions for 2.5 min between runs. The elution was monitored at 300 nm. The retention times of 4OH-AB-PINACA, 5OH-AB-PINACA, 4OH-AB-PINACA glucuronide, and JWH-018-M2 were 3.989, 3.994, 3.646, and 5.391 min.
FIGURE 4 Glucuronidation of 4OH- and 5OH-AB-PINACA in human liver microsomes (HLMs). 4OH-AB-PINACA (A) and 5OH-AB-PINACA (B) were incubated for 90 min with HLMs in the presence or absence of UDPGA. The terminated reaction mixtures were subjected to the UPLC analysis and the eluent was monitor with a UV detector at 300 nm and chromatograms presented. (C) The peak area of the glucuronide was estimated from the triplicate determinations. The data are presented as mean value ± SD. ND, not detected. (D) Comparison of glucuronidation of JWH-018-M2 and 4OH-AB-PINACA with HLMs. JWH-018-M2 and 4OH-AB-PINACA (5 μM) were incubated for 90 min with HLMs in the presence or absence of UDPGA. The terminated reaction mixtures were subjected to the UPLC analysis and the eluent was monitor with a UV detector at 300 nm. The remaining amount of the substrates was quantified by using standard curves of JWH-018-M2 and 4OH-AB-PINACA. The data was shown as mean value ± SD. ^∗P < 0.001. TEXT PRINTED IN THE PICTURE: (C) 5OH-AB-PINACA: Peak area (μV*sec): ND

hCB1Rs [3] = target: T1, hCB1Rs; assay: biochemical; details: CHO-hCB1 membranes; for Emax: read-out: EMAX, [^35S]GTPγS binding (maximal G-protein activation)
CD1 mice = assay: Cannabinoid-elicited hypothermia (rectal temperature); type: in vivo; details: for Lowest rectal temperature, hypothermic effect vs vehicle / Lowest rectal temperature, drug alone vs rimonabant pretreatment: P < 0.05; for Lowest rectal temperature, drug alone vs rimonabant pretreatment: rimonabant 10.0 mg/kg 60 min before
Experimental: For in vivo studies, rimonabant was synthesized in the laboratory of Dr. Thomas E. Prisinzano at the University of Kansas School of Pharmacy (Lawrence, KS, United States), and provided to us as a generous gift. AB-PINACA, and its 4OH metabolite were obtained from Cayman Chemical Company (Ann Arbor, MI, United States). All cannabinoids were dissolved in a vehicle consisting of ethanol, emulphor and saline at a ratio of 1:1:18. Injections were administered via the intraperitoneal (IP) route at a constant volume of […]. Rimonabant was administered at a dose of 10 mg/kg, 60 min before injection of AB-PINACA or its 4OH metabolite.
Adult male CD1 mice (Charles River Laboratory, Wilmington, MA, United States) were housed three subjects per cage (15.2 cm × 25.4 cm × 12.7 cm) in a temperature-controlled room in a vivarium accredited by the Association for Assessment and Accreditation of Laboratory Animal Care, and given ad libitum food (Laboratory Rodent Diet no. 5001; PMI Feeds, St. Louis, MO, United States) and water. The vivarium was maintained at 22°C ± 2°C and 45–50% humidity, with lights set to a 12-h light/dark cycle (lights on at 6:00 AM, CST). […] All procedures were carried out in accordance with the Guide for Care and Use of Laboratory Animals as adopted and promulgated by the National Institutes of Health (NIH). The experimental protocol has been approved by the Institutional Animal Care and Use Committee (IACUC) at the University of Arkansas for Medical Sciences (UAMS).
Mice were habituated to handling and weighing prior to initiation of experimental procedures. A digital thermometer (model BAT-12, PhysiTemp, Clifton, NJ, United States) equipped with a Ret-3 mouse probe (model 50314, Stoelting Co., Dale, IL, United States) was lubricated and inserted approximately 2 cm into the rectum. Stable temperatures were obtained within ∼6 s. Rectal temperature data were sampled immediately before injection, and at 10, 30, 60, 120, 240, and 360 min after injection.
Curve-fitting was conducted utilizing GraphPad Prism® v6.0b (GraphPad Software, Inc.; San Diego, CA, United States). Non-linear regression for one-site competition was used to determine the IC50 for competition receptor binding. The Cheng-Prusoff equation ([Cheng and Prusoff, 1973]) was employed to convert the experimental IC50 values obtained from competition receptor binding experiments to Ki values (a quantitative measure of receptor affinity). Curve fitting of concentration-effect curves via non-linear regression was also employed to determine the […] or IC50 (measures of potency) and Emax or Imax (measures of efficacy) for the [^35S]GTPγS and adenylyl cyclase experiments, respectively. All dissociation constants and measurements of potency were converted to pKi, pEC50, or pIC50 values by taking the negative log of each value so that parametric tests could be used for statistical comparisons. A one-way ANOVA, followed by Tukey’s Multiple Comparison post hoc test, was used to determine statistical significance (P < 0.05). For animal studies, temperature data are shown as mean values (±SEM) for groups of subjects at each drug dose and time point. For statistical analyses, only the highest dose of AB-PINACA or its 4OH- metabolite (with and without rimonabant pretreatment) were considered. The lowest temperatures recorded for each subject within each group (regardless of when after drug administration it occurred) were compared to vehicle data using a one-way ANOVA and Tukey’s HSD post hoc test. Significance was judged at P < 0.05.

hCB1Rs [4] = target: T1, hCB1Rs; assay: cell-based; type: cell-based; details: intact CHO-hCB1 cells, 10 μM forskolin, 15 min
[5] = LC-MS/MS analysis of forensic clinical samples (urine, serum); type: in vivo; details: human forensic clinical sample; for Concentration in serum: Patient 002, serum (text: blood); for Concentration in urine: Patient 002, urine
From the text: For human studies, ToxBox® analytical test kits were provided by PinPoint Testing, LLC (Little Rock, AR, United States) to streamline sample preparation and testing procedures for SCBs, confounding drugs of abuse and other non-specified NPSs. ToxBox® contained NIST-traceable, certified reference material for all standards and isotopically-labeled internal standards along with ISOLUTE® SLE+ 96-well plates manufactured by Biotage (Charlotte, NC, United States). This newly developed kit identifies not only novel SCBs and associated metabolites, but also over 200 drugs and other NPSs that often confound such analytical tests. Optima-grade formic acid, acetonitrile, and methanol were purchased from Fisher Scientific (Fair Lawn, NJ, United States). Deionized water was purified to 18.2 MΩ⋅cm resistivity using the equivalent of a Millipore laboratory water purification system. All other chemicals and supplies were provided by Cerilliant (Round Rock, TX, United States), Cayman Chemical Company (Ann Arbor, Michigan, United States), Lipomed (Cambridge, MA), Biotage (Charlotte, NC, United States) or HemoStat Laboratories (Dixon, CA, United States). Blank defibrinated sheep blood or blank human blood void of drug contamination was used for all studies.
Supported liquid extraction (SLE) procedures were optimized for 96-wellplate processing on a PerkinElmer Zephyr G3 SPE Workstation (Waltham, MA, United States). Sample extracts were analyzed using an Agilent 1260 quaternary liquid chromatography system (Santa Clara, CA, United States) coupled to an Agilent 6420 tandem mass spectrometer (LC-MS/MS). Instrument control and data acquisition relied on MassHunter LC/MS Data Acquisition (VER B.08.00). Data analysis was performed using MassHunter Quantitative Analysis (VER B.07.01 SP2).
Use of this material was approved by the Institutional Review Board of the University of Arkansas for Medical Sciences (Little Rock, AR, United States) (IRB #217584).
All blood calibration standards, QC material, and unknown samples were processed identically by mixing 0.25 ml of blank blood or unknown specimen in appropriate wells at 900 rpm for 15 min, pretreating with 0.25 mL of 0.5 M ammonium hydroxide, and then mixing for another 15 min at 900 rpm. Samples were then loaded, under gentle vacuum or positive pressure, onto a 400 mg ISOLUTE® SLE+ 96-wellplate. Samples were allowed to equilibrate for 5 min before extracting under gravity with two fractions of 900 μL of ethyl acetate. All sample extracts were evaporated to dryness under a gentle flow of nitrogen and reconstituted in 100% methanol (100 μl).
Analytical procedures used 5 μl injections on a 2.6 μm Phenomenex Kinetex Phenyl Hexyl (50 × 4.6 mm) LC column heated to 35°C. Analytes were resolved at 0.5 mL/min using mobile phase A (10 mM ammonium formate in ultrapure 18.2 MΩ⋅cm water) and mobile phase B (0.1% formic acid in methanol). Analytes are resolved using a gradient starting at 95% aqueous (Mobile Phase A) and ramping to 0% aqueous over 4 min, and holding constant for 1 min. The gradient returned to initial conditions over 0.1 min and equilibrated for an additional 1.9 min. The total run time including column equilibration period between injections was 7.0 min. Specific mass spectrometer and analyte parameters are provided in Supplementary Tables S2, S3.

[6] = Ki, 0.2 nM [^3H]CP-55,940, Cheng-Prusoff
[7] = pKi, 0.2 nM [^3H]CP-55,940, mean ± SEM
[8] = mean ± SEM, read-out: pEC50, [^35S]GTPγS binding (converted)
[9] = read-out: EC50, [^35S]GTPγS binding
[10] = read-out: IC50, cAMP accumulation (adenylyl cyclase inhibition)
[11] = read-out: pIC50, cAMP accumulation (converted)

T1 sequence (P21554 whole entry): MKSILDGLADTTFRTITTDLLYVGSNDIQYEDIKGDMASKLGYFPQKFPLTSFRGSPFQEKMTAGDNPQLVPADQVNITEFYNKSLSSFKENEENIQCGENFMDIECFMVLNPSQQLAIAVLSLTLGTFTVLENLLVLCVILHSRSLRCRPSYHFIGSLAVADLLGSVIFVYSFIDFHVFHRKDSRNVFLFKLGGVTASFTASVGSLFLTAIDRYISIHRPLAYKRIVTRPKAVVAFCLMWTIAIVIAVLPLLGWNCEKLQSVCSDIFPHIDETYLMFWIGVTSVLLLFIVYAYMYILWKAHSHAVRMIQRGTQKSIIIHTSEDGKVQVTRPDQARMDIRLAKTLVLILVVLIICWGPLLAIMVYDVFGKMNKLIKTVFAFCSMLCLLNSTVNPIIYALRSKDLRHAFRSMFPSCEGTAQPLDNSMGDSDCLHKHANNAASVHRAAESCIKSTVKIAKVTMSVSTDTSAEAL

For `CC(C)C(NC(=O)c1nn(CCCCCO)c2ccccc12)C(N)=O` (stereo not drawn) [5OH-AB-PINACA], the Ki (hCB1Rs [1]; [6]) was 452 nM, the Ki (hCB1Rs [1]; [7]) was 447 nM and the “Glucuronide formation (UPLC peak)” value [2] was “no such peak is observed; also recorded: glucuronidation is not involved in the clearance”. The Emax (hCB1Rs [3]; mean ± SEM) was 100 ± 16.8%, the EC50 (hCB1Rs [3]; [8]) was 2820 nM and the EC50 (hCB1Rs [3]; [9]) was 2740 nM.
With `CC(O)CCCn1nc(C(=O)NC(C(N)=O)C(C)C)c2ccccc21` (stereo not drawn) [4OH-AB-PINACA] the “hCB1R affinity relative to the parent compound AB-PINACA (fold less)” value (hCB1Rs [1]; 159 nM vs 4 nM) was “approximately 40 fold”, the Ki (hCB1Rs [1]; [6]) was 159 nM and the Ki (hCB1Rs [1]; [7]) was 151 nM. For the same compound, the “Lowest rectal temperature, hypothermic effect vs vehicle” value (CD1 mice; 100.0 mg/kg i.p.) was “significantly different”, the “Lowest rectal temperature, drug alone vs rimonabant pretreatment” value (CD1 mice; 100.0 mg/kg i.p.) was “significantly different” and the “Dose required for a similar level of hypothermia relative to AB-PINACA” value (CD1 mice; 100 mg/kg vs 10 mg/kg) was about 10 fold. For the same compound, the “Effect on rectal temperature” value (CD1 mice; 30.0 and 100.0 mg/kg, i.p.) was “dose- and time-dependent hypothermic effects”, the “Remaining amount of substrate in the presence vs absence of UDPGA” value ([2]; 5 μM substrate, HLMs, Figure 4D) was “such disappearance of substrate is not observed” and the “Glucuronide formation (UPLC peak)” value [2] was “unique peak is observed; also recorded: slightly glucuronidated”. For the same compound, the Emax (hCB1Rs [3]; mean ± SEM) was 92.6 ± 13.4%, the EC50 (hCB1Rs [3]; [8]) was 813 nM and the EC50 (hCB1Rs [3]; [9]) was 952 nM. The “IMAX, cAMP accumulation (maximal adenylyl cyclase inhibition)” value (hCB1Rs [4]) was 87.0 ± 2.9^a %, the IC50 (hCB1Rs [4]; [10]) was 141 nM and the IC50 (hCB1Rs [4]; [11]) was 129 nM.
For `CC(C)(C)[C@H](NC(=O)c1nn(CC2CCCCC2)c2ccccc12)C(N)=O`, the Concentration in serum [5] was 11.3 ng/mL.
In the case of `CC(C)[C@H](NC(=O)c1nn(Cc2ccc(F)cc2)c2ccccc12)C(N)=O` [AB-FUBINACA], the Concentration in urine [5] is reported as 1.1 ng/mL.
`C=C(C)C(C)(C)CC(=O)c1cn(CCCCC(=O)O)c2ccccc12` [UR-144-pentanoic acid degradant] showed a Concentration in serum [5] of 5.4 ng/mL.
With `Cc1c(C(=O)NN2CCCCC2)nn(-c2ccc(Cl)cc2Cl)c1-c1ccc(Cl)cc1` [Rimonabant, reference compound] the “Effect on rectal temperature” value (CD1 mice; 10 mg/kg, alone) was “does not alter rectal temperature”.
For `CCCCCn1nc(C(=O)N[C@H](C(N)=O)C(C)C)c2ccccc21` [AB-PINACA, (S)-N1(1-amino-3-methyl-1-oxobutan-2-yl)-1-pentyl-1H-indazole-3-carbox-amide], the Ki (hCB1Rs [1]; [6]) was 4 nM, the Ki (hCB1Rs [1]; [7]) was 1.78 nM and the “Lowest rectal temperature, hypothermic effect vs vehicle” value (CD1 mice; 10.0 mg/kg i.p.) was “significantly different”. For the same compound, the “Lowest rectal temperature, drug alone vs rimonabant pretreatment” value (CD1 mice; 10.0 mg/kg i.p.) was “significantly different”, the “Effect on rectal temperature” value (CD1 mice; 3.0 and 10.0 mg/kg, i.p.) was “dose- and time-dependent hypothermic effects” and the “Effect on rectal temperature” value (CD1 mice; lowest tested dose (1.0 mg/kg), i.p.) was “prevents the typical injection-elicited increase in rectal temperature”. It also gave an Emax (hCB1Rs [3]; mean ± SEM) of 71.9 ± 5.8%, an EC50 (hCB1Rs [3]; [8]) of 8.71 nM and an EC50 (hCB1Rs [3]; [9]) of 12.8 nM. For the same compound, the “IMAX, cAMP accumulation (maximal adenylyl cyclase inhibition)” value (hCB1Rs [4]) was 72.0 ± 2.1^b %, the IC50 (hCB1Rs [4]; [10]) was 3.9 nM and the IC50 (hCB1Rs [4]; [11]) was 2.24 nM. The Concentration in serum [5] was 1.2 ng/mL and the Concentration in urine [5] was 0.9 ng/mL.

Reference: publication PMC6168621 (Frontiers in Pharmacology, 2018)
